Test results: PubChem BioAssay (NCI)
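1) Cells in 96-well plates. 2) Compound, 48 h, 5 concentrations. 3) Linear interpolation between surrounding doses. 4) Unreached endpoint = highest concentration. GI50 marks 50% less growth. At the TGI there is no net growth.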

Columns and labels:
Experiment in all cases: NCI anticancer screen, dose series, 48 h
TK-10 renal = tested on: TK-10 renal
HT29 colon = tested on: HT29 colon
UACC-62 melanoma = tested on: UACC-62 melanoma
SF-268 CNS = tested on: SF-268 CNS
LOX IMVI melanoma = tested on: LOX IMVI melanoma
OVCAR-5 ovarian = tested on: OVCAR-5 ovarian
MOLT-4 leukemia = tested on: MOLT-4 leukemia
HOP-92 NSCLC = tested on: HOP-92 NSCLC
SF-539 CNS = tested on: SF-539 CNS
SW-620 colon = tested on: SW-620 colon

Compound	GI50 (TK-10 renal)	TGI (TK-10 renal)	GI50 (HT29 colon)	TGI (HT29 colon)	GI50 (UACC-62 melanoma)	TGI (UACC-62 melanoma)	GI50 (SF-268 CNS)	TGI (SF-268 CNS)	GI50 (LOX IMVI melanoma)	TGI (LOX IMVI melanoma)	GI50 (OVCAR-5 ovarian)	TGI (OVCAR-5 ovarian)	GI50 (MOLT-4 leukemia)	TGI (MOLT-4 leukemia)	GI50 (HOP-92 NSCLC)	TGI (HOP-92 NSCLC)	GI50 (SF-539 CNS)	TGI (SF-539 CNS)	GI50 (SW-620 colon)	TGI (SW-620 colon)
COc1nc(C)cc2c(=O)n(-c3ccccc3)n(CCCN3CCN(c4ccc(Cl)cc4)CC3)c(=O)c12	> 50 µM	> 50 µM	> 50 µM	> 50 µM	39.9 µM	> 50 µM	37.7 µM	> 50 µM	> 50 µM	> 50 µM	> 50 µM	> 50 µM	> 50 µM	> 50 µM	10 µM	41.6 µM	> 50 µM	> 50 µM	43.8 µM	> 50 µM
O=C1c2ccccc2-c2c1c1ccccc1c(=O)n2CCCN1CCOCC1	12.1 µM	31.9 µM	> 100 µM	> 100 µM	5.83 µM	21 µM	6.52 µM	26.1 µM	8.87 µM	62.1 µM	35.9 µM	> 100 µM	8.11 µM	> 100 µM	4.81 µM	13 µM	6.65 µM	19.6 µM	20.2 µM	> 100 µM
O=C(O)c1cc2c(cn1)[nH]c1ccccc12	–	> 100 µM	–	> 100 µM	–	> 100 µM	–	> 100 µM	–	> 100 µM	–	> 100 µM	–	> 100 µM	–	> 100 µM	–	> 100 µM	–	> 100 µM
CC(=O)OCC1OC(n2c(=O)n(-c3ccccc3)c(=O)c3ccccc32)C(OC(C)=O)C(OC(C)=O)C1OC(C)=O (stereo not given)	–	> 100 µM	–	> 100 µM	–	> 100 µM	–	> 100 µM	–	> 100 µM	–	> 100 µM	–	> 100 µM	–	> 100 µM	–	> 100 µM	–	> 100 µM
Cc1cc2c(F)c(Oc3ncnn4cc(OC[C@@H](C)OC(=O)[C@H](C)N)c(C)c34)ccc2[nH]1	13.5 µM	27.1 µM	5.73 µM	18.9 µM	8.67 µM	21.9 µM	8 µM	23.5 µM	3.75 µM	18.1 µM	14.9 µM	29.2 µM	7.25 µM	23.5 µM	16.6 µM	33.5 µM	4.81 µM	17.3 µM	6.33 µM	19.7 µM
C[N+](C)(CCCCCC[N+](C)(C)CCCN1C(=O)c2cc3ccccc3cc2C1=O)CCCN1C(=O)c2ccccc2C1=O	> 37.5 µM	> 37.5 µM	> 37.5 µM	> 37.5 µM	> 37.5 µM	> 37.5 µM	> 37.5 µM	> 37.5 µM	> 37.5 µM	> 37.5 µM	> 37.5 µM	> 37.5 µM	> 37.5 µM	> 37.5 µM	> 37.5 µM	> 37.5 µM	> 37.5 µM	> 37.5 µM	> 37.5 µM	> 37.5 µM
O=C(Oc1ccc(CCl)cc1)c1ccccc1	0.174 µM	0.33 µM	0.149 µM	0.289 µM	0.164 µM	0.361 µM	0.17 µM	0.326 µM	0.158 µM	0.305 µM	0.161 µM	0.302 µM	0.188 µM	0.538 µM	0.173 µM	0.348 µM	0.152 µM	0.286 µM	0.103 µM	0.247 µM
CCOC(=O)C1C(=O)c2ccccc2CN1Cc1ccccc1 (stereo not given)	–	> 100 µM	–	> 100 µM	–	> 100 µM	–	> 100 µM	–	> 100 µM	–	> 100 µM	–	> 100 µM	–	> 100 µM	–	> 100 µM	–	> 100 µM
CN(C)CCCNC(=O)c1cc(NC(=O)c2cc(NC(=O)c3cc(NC(=O)CCc4c[nH]c5ccccc45)cn3C)cn2C)cn1C	> 100 µM	> 100 µM	30.7 µM	> 100 µM	> 100 µM	> 100 µM	> 100 µM	> 100 µM	> 100 µM	> 100 µM	> 100 µM	> 100 µM	> 100 µM	> 100 µM	67.1 µM	> 100 µM	> 100 µM	> 100 µM	> 100 µM	> 100 µM
O=C1C(=O)N(c2ccc(Cl)c(Cl)c2)C(=O)C(=O)C1c1nc2ccccc2o1	–	> 100 µM	–	> 100 µM	–	> 100 µM	–	> 100 µM	–	> 100 µM	–	> 100 µM	–	> 100 µM	–	> 100 µM	–	> 100 µM	–	> 100 µM
CCOC(=O)Oc1c(OC)cc(C(=O)O[C@@H]2C[C@@H]3CN4CCc5c([nH]c6cc(OC)ccc56)[C@H]4C[C@@H]3[C@H](C(=O)OC)[C@H]2OC)cc1OC	14.7 µM	42.5 µM	2.32 µM	5.92 µM	6.89 µM	20.3 µM	8.07 µM	27.5 µM	2.91 µM	14.7 µM	18 µM	48.1 µM	4.04 µM	23.3 µM	3.64 µM	18.9 µM	4.18 µM	14.8 µM	3.67 µM	19.4 µM
N=C(N)CCCCCCCCC(=N)N	32.2 µM	> 100 µM	26.3 µM	> 100 µM	64.8 µM	> 100 µM	42.6 µM	> 100 µM	31.8 µM	> 100 µM	26.4 µM	> 100 µM	46.4 µM	> 100 µM	19.1 µM	> 100 µM	35.4 µM	> 100 µM	32.5 µM	> 100 µM
Nc1ccccc1C#C/C=C\C#Cc1ccc(Cl)cc1Cl	11.6 µM	26.8 µM	15.1 µM	> 100 µM	14.5 µM	31.7 µM	4.38 µM	23.7 µM	11 µM	26.5 µM	13.8 µM	28.7 µM	1.62 µM	> 100 µM	17 µM	48.1 µM	12.3 µM	28.9 µM	34.8 µM	> 100 µM
O=C(C(Br)Br)C(Br)C(Br)c1ccccc1 (stereo not given)	2.47 µM	4.78 µM	2.5 µM	5.39 µM	3.25 µM	11.5 µM	4.04 µM	16.9 µM	1.49 µM	3.61 µM	6.6 µM	22.2 µM	1.82 µM	4.76 µM	6.21 µM	19.8 µM	2.43 µM	7.84 µM	2.03 µM	4.19 µM
CC1=Cc2cc3[n-]c(cc4nc(cc5[n-]c(cc1n2)cc5C)C(C)=C4CCC(=O)O)c(CCC(=O)O)c3C.[Pd+2]	24.9 µM	52.9 µM	14.8 µM	36.3 µM	5.29 µM	34.1 µM	20.6 µM	47.7 µM	15.7 µM	39.6 µM	41.6 µM	58.2 µM	10.1 µM	27.5 µM	–	> 23.8 µM	3.71 µM	13.7 µM	15.2 µM	> 63.4 µM
C=C1C(=O)O[C@H]2[C@H]1CC/C(Cn1cc(-c3ccccc3)nn1)=C\CC[C@@]1(C)O[C@@H]21	1.21 µM	4.53 µM	1.79 µM	6.3 µM	1.87 µM	8.22 µM	5.63 µM	13.4 µM	0.808 µM	1.69 µM	5.7 µM	13.3 µM	1.29 µM	3.53 µM	1.42 µM	3.6 µM	2.01 µM	7.18 µM	1.5 µM	6.43 µM
O=C1c2ccccc2-c2c1c1ccccc1c(=O)n2CCNCCNCCn1c2c(c3ccccc3c1=O)C(=O)c1ccccc1-2	1.06 µM	4.11 µM	0.017 µM	> 100 µM	0.338 µM	8.79 µM	0.241 µM	10 µM	0.0437 µM	1.76 µM	8.91 µM	34.5 µM	–	> 100 µM	17.4 µM	39.7 µM	0.542 µM	12.3 µM	0.0296 µM	1.93 µM
C[C@H]1CCC/C=C/[C@@H]2C[C@H](O)C[C@H]2[C@H](O)[C@@H](S(=O)CCN(C)C)CC(=O)O1 (stereo not given in full)	0.468 µM	> 100 µM	0.114 µM	0.293 µM	0.0667 µM	> 100 µM	0.0564 µM	–	0.0697 µM	> 100 µM	0.367 µM	> 100 µM	0.349 µM	–	4.99 µM	> 100 µM	0.151 µM	> 100 µM	0.277 µM	–
CC1(C)OCC(CO)(Nc2nc(N3CC3)nc(N3CC3)n2)CO1	–	67.5 µM	–	53.7 µM	–	14 µM	–	27.6 µM	–	32.4 µM	–	50.3 µM	–	19 µM	–	51.5 µM	–	27 µM	–	64.1 µM
Cc1[nH]c(/C=C2\C(=O)Nc3ccc(F)cc32)c(C)c1C(=O)NC[C@H](O)CN1CCOCC1	5.37 µM	> 10 µM	2.91 µM	> 10 µM	3.55 µM	> 10 µM	4.83 µM	> 10 µM	2.33 µM	> 10 µM	2.85 µM	> 10 µM	2.61 µM	> 10 µM	1.17 µM	6.84 µM	4.31 µM	> 10 µM	2.3 µM	> 10 µM
